Common to all, as to experiment: inhibition of tumour cell growth, NCI panel, 48 h
Experiment [1] has as its system A549 NSCLC.
In experiment [2] the test system is DLD-1 colon.
For experiment [3], the system named is DMS 114 small cell lung.
The test system of experiment [4] is DMS 273 small cell lung.
Experiment [5] has as its system HOP-18 NSCLC.
The subject of experiment [6] is KM20L2 colon.
In experiment [7] the test system is LXFL 529 NSCLC.
Experiment [8] has as its system M19-MEL melanoma.
Experiment [9] relates to MCF7 breast.
The test system of experiment [10] is SNB-75 CNS.
The test system of experiment [11] is SNB-78 CNS.
The subject of experiment [12] is UO-31 renal.
In experiment [13] the test system is XF 498 CNS.
Experiment [14] concerns RXF-631 renal.

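1) Cells in 96-well plates. 2) Compound, 48 h, 5 concentrations. 3) Linear interpolation between surrounding doses. 4) Unreached endpoint = highest concentration. At the TGI there is no net growth.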 Where a SMILES comes first, the peptide text is derived from it. The star is where a group is joined. Cbz = O=C(OCc1ccccc1)*

On to `COc1cc(NS(C)(=O)=O)ccc1Nc1c2ccccc2nc2c1[nH]c1ccc(NC3OC(CO)C(O)C(O)C3O)cc12` (stereo unspecified), for which the TGI in [1] stood at 0.235 µM; in [2] it was 1.93 µM; in experiment [3], 0.0784 µM; in experiment [4] it was 0.261 µM; in experiment [5] it was 1.65 µM; in experiment [6], 1.87 µM. Moreover, the TGI in experiment [7] was 2.46 µM; in [8], 1.75 µM; in experiment [9], 10.1 µM; in experiment [10], 0.388 µM; in [11], 9.3 µM; in experiment [12], 1.19 µM. In experiment [13], this molecule came in with a TGI of 0.832 µM.
For the molecule `CN1CCOC(c2ccccc2)O1` (stereo unspecified), the TGI in [1], in [2], in experiment [3], in experiment [4], in experiment [5] and in [6] was over 100 µM each time. The TGI in experiment [7], in experiment [8], in [14], in experiment [10], in experiment [11] and in [12] was over 100 µM each time.
Turning to `CN(C)CCC(=O)c1ccccc1`, the TGI in experiment [1] is over 82.1 µM; in experiment [2], 41 µM; in experiment [3], over 56.2 µM; in experiment [4] it was over 100 µM; in [5], over 68.9 µM; in experiment [6] it was over 59.1 µM. The TGI in experiment [7] is 44.7 µM; in [8], 52.7 µM; in [10], over 71 µM; in experiment [11], 69 µM; in [12] it was over 68.8 µM; in experiment [13], 38.5 µM.
For the molecule `COC1(OC)C(N(C)C)=C(Cl)C(=O)/C1=C/C=O`, the TGI in [1], in [2], in experiment [3], in experiment [4], in [5] and in experiment [6] was over 100 µM each time. The TGI in experiment [7], in experiment [8] and in [12] was over 100 µM in each case.
As for `S=c1sc2c(Cl)nc(Cl)nc2n1-c1ccccc1`, the TGI in [1] is over 100 µM; in experiment [2], 29.9 µM; in experiment [3] it was 27.3 µM; in experiment [4] it was over 100 µM; in experiment [5], over 100 µM; in experiment [6], over 100 µM. Also, the TGI in experiment [7] is 31.7 µM; in experiment [8], 29.9 µM; in [10], over 100 µM; in experiment [11], over 100 µM; in [12], over 100 µM; in experiment [13], over 100 µM.
For the molecule `CN=C1CC2c3cc(OC)c(OC)cc3CCN2C2=C1C(=O)CC(C)(C)C2` (stereo unspecified), the TGI in experiment [1], in [2], in [3], in experiment [4], in experiment [6] and in [7] was over 100 µM in each case. Also, the TGI in experiment [8], in experiment [10], in [11] and in experiment [12] was over 100 µM each time.
In the case of `N#C/C1=C(\N)CCSSSC1`, the TGI in [1] is over 100 µM; in experiment [2] it was over 100 µM; in experiment [3], over 100 µM; in experiment [4] it was over 100 µM; in experiment [6], 49.3 µM; in experiment [7] it was over 100 µM. Moreover, the TGI in [8], in [14], in experiment [10], in experiment [11], in [12] and in experiment [13] was over 100 µM throughout.
In the case of `CC1CN(C(=O)CN2CCC(CCCCN(C)C)CC2)c2ccccc2NC1=O` (stereo unspecified), the TGI in experiment [1], in experiment [2], in [3], in [4], in experiment [5] and in [6] was over 100 µM in each case. Also, the TGI in experiment [7], in [8], in experiment [14] and in experiment [12] was over 100 µM throughout.
Take `CCOC(=O)c1nnc2c(C(=O)OCC)c3ccccc3n2c1N`: the TGI in [1] is over 100 µM; in experiment [9], over 100 µM; in experiment [10], 67.3 µM; in experiment [12], over 100 µM.
Turning to `O=C1/C(=C/c2ccccc2S)N=C(c2ccccc2)N1c1nc2c(Cl)cc(Cl)cc2s1`, the TGI in experiment [1] stood at 54.3 µM; in experiment [9], 58.1 µM; in experiment [10] it was 64.8 µM; in experiment [12], 48.1 µM.
`CCCNC(=S)NNC(=O)CSc1nc(-c2ccccc2)c(-c2ccccc2)[nH]1`: the TGI in experiment [1], in [2], in experiment [3], in experiment [4], in [6] and in experiment [7] was over 100 µM each time. The TGI in experiment [8], in experiment [10], in experiment [11], in experiment [12] and in experiment [13] was over 100 µM each time.
For the molecule `CC(=O)c1[nH]c(NCc2ccccc2)c(C(=S)Nc2ccccc2)c1N`, the TGI in [1] is 93.9 µM; in experiment [9], 37.2 µM; in [10] it was over 100 µM; in experiment [12] it was 6.34 µM.
The like results for `O=C1C(c2c(O)[nH]c3ccc(F)cc23)=Nc2ccccc21` were, in that order, over 100 µM, over 100 µM, 15.1 µM and over 100 µM.
In the case of `COc1ccc(-[n+]2nc(S(=O)(=O)O)c(/C=C/c3ccc(N(C)C)cc3)cc2C#N)cc1`, the TGI in [1], in experiment [9], in experiment [10] and in experiment [12] was over 100 µM in each case.
In the case of `Cc1nc2c(nc1C)-c1[nH]c3c(c1C(=O)C2=O)CCCC3=O`, the TGI came out at 16.3 µM in [1], 2.98 µM in experiment [9], 3.31 µM in experiment [10] and 10.3 µM in experiment [12].
In the case of `Cc1ccccc1N1C(=O)C2C=CC(n3[nH]c(=O)n(Cc4ccccc4)c3=O)CC2C1=O` (stereo unspecified), the TGI in [1], in [2], in [3], in [4], in [5] and in [6] was over 100 µM each time. The TGI in experiment [7], in experiment [8], in experiment [10], in [11], in experiment [12] and in experiment [13] was over 100 µM throughout.
For `O=C(O)CCC(NC(=O)OCc1ccccc1)C(=O)NC(Cc1cnc[nH]1)C(=O)O` (stereo not drawn) (Cbz-Glu-His-OH; configuration not given here), the TGI in experiment [1], in [9], in experiment [10] and in [12] was over 100 µM in each case.
With `Cn1c(=O)n(C2(C)C[Se]C2)c2ccccc21`, the TGI in experiment [1], in experiment [2], in experiment [4], in experiment [6], in experiment [7] and in experiment [8] was over 100 µM each time. The TGI in [10], in experiment [11] and in [12] was over 100 µM throughout.
As to `CC(C)C(=O)OCC1OC(n2c(Br)nc3c(=O)[nH]c(N)nc32)C(OC(=O)C(C)C)C1OC(=O)C(C)C` (stereo unspecified), the TGI in experiment [1], in experiment [9], in experiment [10] and in experiment [12] was over 100 µM in each case.
In the case of `N#Cc1c2ccccc2cn1-c1ccc(F)cc1`, the TGI in experiment [1], in [2], in [3], in experiment [6], in [7] and in experiment [8] was over 100 µM each time. Moreover, the TGI in experiment [10] was 18.9 µM; in experiment [12] it was 39.6 µM; in experiment [13], over 100 µM.
On to `CC(C)=CC[C@]12CCN[C@H]1N(S(=O)(=O)c1ccccc1)c1ccccc12`, for which the TGI is 59.1 µM in [1], 39.8 µM in [9], 44.5 µM in experiment [10] and 33.3 µM in [12].
The corresponding values for `O=C(O)C(NCc1ccccc1)C(NCc1ccccc1)C(=O)O` (stereo unspecified) are over 100 µM, over 100 µM, over 100 µM and over 100 µM.

The values above are taken from PubChem BioAssay (NCI).
